Assay results reported in US20240108641A1, “COMPOSITIONS FOR ORAL ADMINISTRATION OF ZOLEDRONIC ACID OR RELATED COMPOUNDS FOR TREATING DISEASE” (ANTECIP BIOVENTURES II LLC, priority 2012, published 2024).

Experiment: in vivo
Conditions: beagle, dog, po, 150 mg
Protocol: Tablets were manufactured containing either pure zoledronic acid or the disodium salt of zoledronic acid (disodium zoledronate tetrahydrate). Both types of tablets contained 50 mg of zoledronic acid equivalent per tablet. Identical excipients were used in both types of tablets, with amounts adjusted to account for the difference in molecular weights between the acid and the disodium salt.
Beagle dogs were orally administered tablets containing 150 mg zoledronic acid equivalent either in the form of disodium zoledronate (Group 1) or pure zoledronic acid (Group 2). Each animal was given three 50 mg equivalent tablets (150 mg total), which were administered together. The animal's oral cavity was wetted with water before placing the tablets on the back of the animal's tongue. Animals were fasted before and after dosing. Animals were 6 to 9 months of age and weighed 6 to 10 kg on the day of dosing. There were three dogs per group.
Serial blood samples were collected from each animal by venipuncture of the jugular vein at various points after dosing for measurement of plasma concentrations of zoledronic acid. Blood samples were collected into chilled tubes containing K2EDTA as the anticoagulant. Samples were then centrifuged at approximately 3000 rpm at +4° C. for 10 minutes for plasma derivation. Plasma concentrations of zoledronic acid were measured using an LC/MS/MS method.

O=P(O)(O)C(O)(Cn1ccnc1)P(=O)(O)O [zoledronic acid]
AUC(0-inf): 2220 ng·h/mL
